Test results as given in patent publication USRE47493E1, “Substituted bicyclic dihydropyrimidinones and their use as inhibitors of neutrophil elastase activity” (Boehringer Ingelheim International GmbH, priority 2014, dated 2019).
In brackets after ≈: the same amount, converted by molar mass.

Key:
[1] = Assay for the Determination of Metabolic Stability with Human Hepatocytes; type: in vitro ADME; details: scaled with well stirred model
Description: Assay for the Determination of Metabolic Stability with Human Hepatocytes
The metabolic degradation of the test compound is assayed in a human hepatocyte suspension. Human hepatocytes (typically cryopreserved) are incubated in an appropriate buffer system (e.g. Dulbecco's modified eagle medium plus 3.5 μg glucagon/500 mL, 2.5 mg insulin/500 mL and 3.75 mg/500 mL hydrocortison) containing 5% species serum. Following a (typically) […] preincubation in an incubator (37° C., 10% CO2), 5 μl of test compound solution (80 μM; from 2 mM stock solution in DMSO diluted 1:25 with medium) are added into 395 μl hepatocyte suspension (cell density in the range 0.25-5*10^6 cells/mL, typically 1*10^6 cells/mL; final concentration of test compound 1 μM, final DMSO concentration […]). The cells are incubated for six hours (incubator, orbital shaker) and samples (25 μl) are taken at 0, 0.5, 1, 2, 4 and 6 hours. Samples are transferred into acetonitrile and pelleted by centrifugation (5 min). The supernatant is transferred to a new 96-deepwell plate, evaporated under nitrogen and resuspended. The decline of parent compound is analyzed by LC-MS/MS.
The intrinsic clearance CL_[…] is calculated as follows: CL_[…]=Dose/AUC=(C0/CD)/(AUD+clast/k)*1′000/60 (C0: initial concentration in the incubation [μM], CD: cell density of vital cells [10^6 cells/mL], AUD: area under the data [μM*h], clast: concentration of last data point [μM], k: slope of the regression line for parent decline [h^−1])
The calculated in vitro hepatic intrinsic clearance can be scaled up to the intrinsic in vivo hepatic clearance and used to predict hepatic in vivo blood clearance (CL) by the use of a is liver model (well stirred model): CL_[…]_INVIVO [ml/min/kg]=(CL_[…] [μL/min/10^6 cells]* hepatocellularity[10^6 cells/g liver]*liver factor[g/kg bodyweight])/1′000 CL[ml/min/kg]=CL_[…]_INVIVO [ml/min/kg]*hepatic blood flow [ml/min/kg]/(CL_[…]_INVIVO [ml/min/kg]+hepatic blood flow [ml/min/kg]) Qh[%]=CL[ml/min/kg]/hepatic blood flow[ml/min/kg]) (Hepatocellularity, human: 120*10^6 cells/g liver; lver factor, human: 25.7 g/kg bodyweight; blood flow, human: 21 ml/(min*kg))
The predicted human hepatic in vivo blood clearance (CL) of selected compounds in the metabolic stability assay described above are listed in Table 16.

[2] = Assay for the Determination of Metabolic Stability with Human Liver Microsomes; type: in vitro ADME; details: pooled human liver microsomes, 37° C., NADPH; for half-life at 1 nM: pH 7.6, read-out: t1/2 INVITRO
Description: Assay for the Determination of Metabolic Stability with Human Liver Microsomes
The metabolic degradation of the test compound is assayed at 37° C. with pooled human liver microsomes. The final incubation volume of […] per time point contains TRIS buffer pH 7.6 (0.1 M), magnesium chloride (5 mM), microsomal protein (1 mg/ml) and the test compound at a final concentration of […]. Following a short preincubation period at 37° C., the reactions are initiated by addition of beta-nicotinamide adenine dinucleotide phosphate, reduced form (NADPH, 1 mM) and terminated by transfering an aliquot into acetonitrile after different time points. Additionally, the NADPH-independent degradation is monitored in incubations without NADPH, terminated at the last time point. The rol remaining test compound after NADPH independent incubation is reflected by the parameter c(control) (metabolic stability). The quenched incubations are pelleted by centrifugation (10′000 g, 5 min) An aliquot of the supernatant is assayed by LC-MS/MS for the amount of parent compound.
The half-life (t1/2 INVITRO) is determined by the slope of the semilogarithmic plot of the concentration-time profile. The intrinsic clearance (CL_[…]) is calculated by considering the amount of protein in the incubation: CL_[…][μl/min/mg protein]=(ln 2/(half-life [min]*protein content [mg/ml]))*1′000.
The half-life (t1/2 INVITRO) values of selected compounds in the metabolic stability assay described above are listed in Table 15.

[3] = Assay for Determination of Aqueous Solubility; type: physicochemical; details: McIlvaine buffer pH 6.8, 2.5% DMSO; for Aqueous solubility: 24 h; for solubility at 24 h: McIlvaine buffer pH 6.8 with 2.5% DMSO, aqueous buffer, kinetic from dmso stock
Description: Assay for Determination of Aqueous Solubility
The aqueous solubility of a compound is determined by comparing the amount dissolved in aqueous buffer (containing 2.5% DMSO) to the amount dissolved in an acetonitrile/water (1/1) solution. Starting from a 10 mM DMSO stock solution, aliquots are diluted with acetonitrile/water (1/1) and Mcllvaine buffer pH 6.8, respectively. After 24 h of shaking, the solutions or suspensions are filtered and analyzed by LC-UV. The amount dissolved in buffer is compared to the amount dissolved in the acetonitrile/water (1/1) solution. Solubility is measured from 0.001 to 0.125 mg/ml at a DMSO concentration of 2.5%. If more than 90% of the compound is dissolved in buffer, the value is marked with “>”.

[4] = Assay for Determination of Drug Transport Across Human CACO-2 Cells; type: in vitro ADME; details: human; for efflux ratio at 2 h, 10 nM: pH 7.2, Caco-2, PEBA/PEAB; for Papp A→B at 10 nM: Caco-2, apical-to-basal, read-out: PEAB; for Papp A→B at 10 nM / Papp B→A at 10 nM: pH 7.2, 37° C.; for Papp B→A at 10 nM: Caco-2, basal-to-apical, read-out: PEBA
Description: (§1) Assay for Determination of Drug Transport Across Human CACO-2 Cells
(§2) The assay provides information on the potential of a compound to pass the cell membrane, on the extent of oral absorption as well as on whether the compound is actively transported by uptake and/or efflux transporters. For the measurement of permeability across polarized, confluent human cancer colon carcinoma cells 2 (Caco-2) cell monolayers grown on permeable filter supports are used as the in vitro absorption model. Apparent permeability coefficients (PE) of the compounds across the Caco-2 monolayers are measured (pH 7.2, 37° C.) in apical-to-basal (AB) (absorptive) and basal-to-apical (BA) (secretory) transport direction. AB permeability (PEAB) represents drug absorption from the intestine into the blood and BA permeability (PEBA) drug secretion from the blood back into the intestine via both passive permeability as well as active transport mechanisms mediated by efflux and uptake transporters that are expressed on the Caco-2 cells. The compounds are assigned to permeability/absorption classes by comparison of the AB permeabilities with the AB permeabilities of reference compounds with known in vitro permeability and oral absorption in the human. Identical or similar permeabilities in both transport directions indicate passive permeation, vectorial permeability points to additional active transport mechanisms. […] Active transport is concentration-dependently saturable.
(§3) Caco-2 cells (1−2*10^5 cells/cm^2 area) are seeded on filter inserts (Costar transwell polycarbonate or PET filters, […] pore size) and cultured (DMEM) for 10 to 25 days. Compounds are dissolved in appropriate solvent (like DMSO, 1-20 mM stock solutions). Stock solutions are diluted with HTP-4 buffer (128.13 mM NaCl, 5.36 mM KCl, 1 mM MgSO4, 1.8 mM CaCl2, 4.17 mM NaHCO3, 1.19 mM Na2HPO4×7H2O, 0.41 mM NaH2PO4×H2O, 15 mM HEPES, 20 mM glucose, pH 7.2) to prepare the transport solutions (typically […] compound, final DMSO <=0.5%). The transport solution (TL) is applied to the apical or basolateral donor side for measuring A-B or B-A permeability (3 filter replicates), respectively. The receiver side contains HTP-4 buffer supplemented with 2% BSA. Samples are collected at the start and end of experiment from the donor and at various time intervals for up to 2 hours also from the receiver side for concentration measurement by LC-MS/MS or scintillation counting. Sampled receiver volumes are is replaced with fresh receiver solution.
(§4) The apparent permeability coefficients (PEAB and PEBA) and efflux ratios (PEBA/PEAB) of selected compounds in the Caco-2 drug transport assay described above are listed in Table 17.

Caco-2 cell monolayers = assay: as above; type: in vitro ADME; details: for Efflux ratio: Caco-2, PEBA/PEAB; for PEAB: Caco-2, apical-to-basal; for PEAB / PEBA: pH 7.2, 37° C.; for PEBA: Caco-2, basal-to-apical
Description: as §1, §2, §3, §4

Structure (SMILES) | CL (predicted human hepatic in vivo blood clearance) [1] | t1/2 INVITRO [2] | Aqueous solubility [3] | half-life at 1 nM [2] | efflux ratio at 2 h, 10 nM [4] | Papp A→B at 10 nM [4] | Papp B→A at 10 nM [4] | solubility at 24 h [3] | Efflux ratio (Caco-2 cell monolayers) | PEAB (Caco-2 cell monolayers) | PEBA (Caco-2 cell monolayers)
CS(=O)(=O)CCNC(=O)N1C(=O)N(c2cccc(C(F)(F)F)c2)C2=C(C(=O)CCC2)C1c1ccc(C#N)cc1 (centres unmarked) [Example 39.19] | 0 mL/min/kg | >2.17 h | 9 µg/mL | – | – | – | – | – | – | – | –
CN1C(=O)N(c2cccc(C(F)(F)F)c2)C2=C(C(=O)CCC2)[C@H]1c1ccc(C#N)cc1S(C)(=O)=O [Example 48, (S)-4-(3-Methyl-2,5-dioxo-1-(3-(trifluoromethyl)phenyl)-1,2,3,4,5,6,7,8-octahydroquinazolin-4-yl)-3-(methylsulfonyl)benzonitrile] | 3 mL/min/kg | – | – | > 2.17 h | 1.6 | 60 ×10⁻⁶ cm/s | 98 ×10⁻⁶ cm/s | – | – | – | –
CN1C(=O)N(c2ccnc(C(F)(F)F)c2)C2=C(C(=O)CCC2)C1c1ccc(C#N)cc1S(C)(=O)=O (centres unmarked) [Example 64, 4-(3-Methyl-2,5-dioxo-1-(2-(trifluoromethyl)pyridin-4-yl)-1,2,3,4,5,6,7,8-octahydroquinazolin-4-yl)-3-(methylsulfonyl)benzonitrile] | 0 mL/min/kg | – | – | > 2.17 h | 4.4 | 17.1 ×10⁻⁶ cm/s | 75.7 ×10⁻⁶ cm/s | 8 µg/mL (≈ 15.9 µM) | – | – | –
CS(=O)(=O)c1cc(C#N)ccc1[C@@H]1C2=C(CCCC2=O)N(c2cccc(C(F)(F)F)c2)C(=O)N1S(C)(=O)=O [Example 68, (S)-3-(Methylsulfonyl)-4-(3-(methylsulfonyl)-2,5-dioxo-1-(3-(trifluoromethyl)phenyl)-1,2,3,4,5,6,7,8-octahydroquinazolin-4-yl)benzonitrile] | 0 mL/min/kg | – | – | > 2.17 h | – | – | – | 57 µg/mL (≈ 100 µM) | – | – | –
CC(C)NC(=O)N1C(=O)N(c2cccc(C(F)(F)F)c2)C2=C(C(=O)CCC2)[C@H]1c1ccc(C#N)cc1S(C)(=O)=O [Example 75.3] | 0 mL/min/kg | >2.17 h | 9 µg/mL | – | – | – | – | – | 3.7 | 22.8 ×10⁻⁶ cm/s | 85.3 ×10⁻⁶ cm/s
CS(=O)(=O)c1cc(C#N)ccc1[C@@H]1C2=C(CCCC2=O)N(c2cccc(C(F)(F)F)c2)C(=O)N1C(=O)NCC(F)F [Example 75.7] | 0 mL/min/kg | >2.17 h | 905 µg/mL | – | – | – | – | – | 10.8 | 8.4 ×10⁻⁶ cm/s | 90.6 ×10⁻⁶ cm/s
